In ChEMBL document CHEMBL4340579, “HPLC-DAD-Directed Isolation of Linearly Fused Prenylated Indole Alkaloids from a Soil-Derived Aspergillus versicolor” (J Nat Prod, 2019):

Columns and labels:
HepG2 = experiment: Cytotoxicity in human HepG2 cells assessed as reduction in cell viability incubated for 3 days by MTT assay; format: functional, cell-based
MCF7 = experiment: Cytotoxicity in human MCF7 cells assessed as reduction in cell viability incubated for 3 days by MTT assay; format: functional, cell-based
NCM460 = experiment: Cytotoxicity in human NCM460 cells assessed as reduction in cell viability incubated for 3 days by MTT assay; format: cell-based
A549 = experiment: Cytotoxicity in human A549 cells assessed as reduction in cell viability incubated for 3 days by MTT assay; format: functional, cell-based
HeLa = experiment: Cytotoxicity in human HeLa cells assessed as reduction in cell viability incubated for 3 days by MTT assay; format: functional, cell-based
[1] = Homo sapiens, HeLa, 72 h, read-out: IC50

Compound | IC50 (HepG2; hepg2) | IC50 (MCF7; mcf7) | IC50 (NCM460; ncm460) | IC50 (A549; a549) | IC50 (HeLa; hela) | IC50 (HepG2; Homo sapiens, HepG2, 72 h, read-out: IC50) [nM] | IC50 (MCF7; Homo sapiens, MCF7, 72 h, read-out: IC50) [nM] | IC50 (NCM460; Homo sapiens, NCM460, 72 h, read-out: IC50) [nM] | IC50 (A549; Homo sapiens, A549, 72 h, read-out: IC50) [nM] | IC50 (HeLa; [1]) [nM]
C=CC(C)(C)[C@]1(CC2(O)NC(=O)C3CCCN3C2=O)C(=O)Nc2cc3c(cc21)C=CC(C)(C)O3 (stereo not given in full) | Not Active | Not Active | Non-Toxic | Not Active | Not Active | – | – | – | – | –
CC(=O)O[C@H]1C(=O)[C@@]2(C)[C@H]([C@H](OC(=O)c3ccccc3)[C@]3(O)C[C@H](OC(=O)[C@H](O)[C@@H](NC(=O)c4ccccc4)c4ccccc4)C(C)=C1C3(C)C)[C@]1(OC(C)=O)CO[C@@H]1C[C@@H]2O [PACLITAXEL] | – | – | – | – | – | < 8 | < 8 | < 8 | < 8 | < 8
C=CC(C)(C)[C@@]12Nc3cc4c(cc3[C@]1(O)C[C@H]1C(=O)N3CCC[C@H]3C(=O)N12)C=CC(C)(C)O4 | Not Active | Not Active | Non-Toxic | Not Active | Not Active | – | – | – | – | –
C=CC(C)(C)c1[nH]c2cc3c(cc2c1C=O)C=CC(C)(C)O3 | Not Active | Not Active | Non-Toxic | Not Active | – | – | – | – | – | 6400
C=CC(C)(C)[C@]1(CC2NC(=O)C3(O)CCCN3C2=O)C(=O)Nc2cc3c(cc21)C=CC(C)(C)O3 (stereo not given in full) | Not Active | Not Active | Non-Toxic | Not Active | Not Active | – | – | – | – | –
C=CC(C)(C)[C@@]1(C[C@@H]2NC(=O)[C@@H]3CCCN3C2=O)C(=O)Nc2cc3c(cc21)C=CC(C)(C)O3 | Not Active | Not Active | Non-Toxic | Not Active | Not Active | – | – | – | – | –
C=CC(C)(C)[C@@]12Nc3cc4c(cc3[C@]1(O)C[C@]1(NC(=O)[C@H]3CCCN3C1=O)O2)C=CC(C)(C)O4 | Not Active | Not Active | Non-Toxic | Not Active | – | – | – | – | – | 7300
C=CC(C)(C)[C@@]12Nc3cc4c(cc3[C@]1(O)C[C@]1(O)C(=O)N3CCC[C@H]3C(=O)N21)C=CC(C)(C)O4 | Not Active | Not Active | Non-Toxic | Not Active | Not Active | – | – | – | – | –
C=CC(C)(C)[C@]1(C[C@]2(OC)NC(=O)[C@@H]3CCCN3C2=O)C(=O)Nc2cc3c(cc21)C=CC(C)(C)O3 | Not Active | Not Active | Non-Toxic | Not Active | Not Active | – | – | – | – | –
C=CC(C)(C)[C@]1(C[C@@H]2NC(=O)[C@@H]3CCCN3C2=O)C(=O)Nc2cc3c(cc21)C=CC(C)(C)O3 | Not Active | Not Active | Non-Toxic | Not Active | Not Active | – | – | – | – | –
